Counter-ions that a name gives are not always drawn.
System: HRECs treated with VEGF (human retinal endothelial cells)
Experiment: in vitro permeability / Electrical Cell-Substrate Impedance Sensing (ECIS) assay
Format: cell-based
Details: 50 ng/ml Rec. VEGF, compounds at 10 uM, resistance calculated at the end of 24 hrs
Procedure: The 250-um diameter gold electrode measures the ion current in the cell layer and measures the resistance and how the barrier function is altered with VEGF and drug treatment.
The inventors used the Prestwick chemical library compounds, which consists of a total of 1520 library compounds to check their effectiveness to decrease permeability in HRECs treated with VEGF (FIG. 4). […] The in vitro permeability or Electrical Cell-Substrate Impedance Sensing (ECIS) assay was carried out using Applied biophysics Z theta instrument, using 96W10idf PET plates. The HRECs were first seeded on the plates and the cells were allowed to grow until the desired resistance was achieved (800-1200V), this usually takes 15-18 hrs. After that the cells were treated with 50 ng/ml Rec. VEGF and the compounds at 10 uM concentration. At the end of 24 hrs, the resistance was calculated (an increase in resistance implies decreased permeability).

| SMILES | resistance of EC layer (an increase in resistance implies decreased permeability) |
| --- | --- |
| OC[C@H]1O[C@@H](c2ccc(Cl)c(Cc3ccc(O[C@H]4CCOC4)cc3)c2)[C@H](O)[C@@H](O)[C@@H]1O [Empaglifozin, empagliflozin] | significant increase in resistance |
| CNCCCN1c2ccccc2CCc2ccccc21 [Desipramine HCl, desipramine] | significant increase in resistance |
| Cc1noc(NS(=O)(=O)c2ccc(N)cc2)c1C [Sulfisoxazole, sulfisoxazole] | increased resistance |
| CNCCCC1c2ccccc2C=Cc2ccccc21 [Protriptyline HCl, protriptyline] | significant increase in resistance |
| c1ccc2c(CC3=NCCN3)cccc2c1 [Naphazoline HCl, naphazoline] | increased resistance |
| Cc1ccc(N(CC2=NCCN2)c2cccc(O)c2)cc1 [Phentolamine, phentolamine] | increased resistance |
| CC(C(=O)O)c1ccc(C(=O)c2cccs2)cc1 (stereo not shown) [Suprofen, suprofen] | increased resistance |
| CN(C)CCN(Cc1cccs1)c1ccccn1 [Methapyrilene, methapyrilene] | increased resistance |
| N#Cc1ccc(Oc2ccc3c(c2)COB3O)cc1 [Crisaborole, crisaborole] | significant increase in resistance |
| O=[N+]([O-])c1ccc(O)c2ncccc12 [Nitroxolone, nitroxolone] | significant increase in resistance |

— patent publication US20250381195A1, “Methods of Treating Diabetic Macular Edema” (UNM Rainforest Innovations, priority 2024, published 2025)
